Entries after “also recorded” stand apart in the source; their conditions may differ.
Legend:
[1] = system: Monoclonal antibody cocktail-induced arthritis mice; assay: Arthritis suppressing effects on arthritis-induced mice, Part 2; type: in vivo; settings: 10 mg/kg intraperitoneal twice a day, 14 consecutive days from day 0
Experimental: Monoclonal antibody cocktail-induced arthritis mice were used to examine arthritis suppressing effects of peptides which are indicated as R1, R2, and R5 in Example 2. Arthritis was caused by intravenous administration of 2 mg/mouse of an arthritis-inducing monoclonal antibody cocktail and three days later, intraperitoneal administration of 50 μg/mouse of LPS. The peptides were administered at a dose of 10 mg/kg twice a day for a period of 14 consecutive days from the day of administration of the arthritis-inducing monoclonal antibody cocktail (day 0), and arthritis suppressing effect was examined in terms of clinical score. Experiments were carried out in a similar way to those in the section (1) in Example 3.
The required amount was calculated for each peptide, based on the animal weight. Each peptide solution was prepared to make a concentration of 1 mg/ml in a 0.5% methyl cellulose solution, and the prepared peptide solution was cold stored.
Measurement of body weight of animals was made on days 0, 3, 6, 9, 12, and 14 during the study period, with day 0 being the day of administration of the arthritis-inducing monoclonal antibody cocktail. Observation of general condition was made on a daily basis.
Mice were weighed on the day prior to start of administration and randomly assigned to groups using a grouping software, so that the average body weight values of the groups were approximately equal. To twenty 7-week-old mice, the arthritis-inducing monoclonal antibody cocktail was intravenously administered at a dose of 2 mg/mouse on day 0, and LPS was intraperitoneally administered at a dose of 50 μg/mouse on day 3.
Each peptide solution was given via intraperitoneal administration twice a day, morning and afternoon, from day 0. As a control, a 0.5% solution of methyl cellulose was intraperitoneally administered twice a day from day 0. A needle (26G; Terumo) and a syringe (1.0-ml capacity; Terumo) were used for administration. […]
Results of examinations were expressed by mean value±standard error and analyzed using EXSAS (Version 7.1.6, Arm Systex Co., Ltd.). […]

[2] = system: type III allergic (Arthus) reaction-induced rats; assay: Immune-complex disease suppression in type III allergic (Arthus) reaction-induced rats, Part 1; type: in vivo; settings: intraperitoneal administration, 10 or 100 mg/kg
Experimental: Using sixty-four 7-week-old male Slc:Wistar rats, examinations were made on peptides R1, R2, and R5, in two series of examinations, each using a different method of administration (intraperitoneal administration and tail vein administration). Acclimation was carried out by giving normal solid chow CRF-1 for a period of 9 days or longer. The back of the animals was shaved on the day prior to administration, and a mixed solution of OVA and Evans blue dye was administered into the tail vein on the day of administration. Each peptide solution was administered intraperitoneally or into the tail vein 30 minutes or 50 minutes after the administration of the mixed solution of OVA and Evans blue dye, respectively. For intracutaneous administration of an anti-OVA solution, […] was intracutaneously administered in the back of animals at a dose of 0.1 ml/site 30 minutes or 10 minutes after the administration of the tested substance in the case of intraperitoneal or intravenous administration, respectively, so as to generate a local Arthus reaction. After the reaction was allowed to be generated for 4 hours, the animals were euthanized, the blood was removed thoroughly, and then the dorsal skin was exfoliated. The Arthus reaction sites on the exfoliated skin were punched out, and the Evans blue dye was extracted from the punched skin overnight. The amount of dye leakage was quantified by measuring absorbance for the Evans blue dye with a spectrophotometer and using a calibration curve (see, H. Okamoto, Y. Iwahisa, and M. Terasawa, “Suppression of the Arthus reaction by Y-24180, a potent and specific antagonist of platelet-activating factor”, Agents Actions, 35:149-158 (1992), for experimental procedures used in Example 4).
A predetermined amount of each peptide (peptides R1, R2, and R5) was dissolved in physiological saline to make a 20 mg/ml solution. A 2 mg/ml solution was prepared by diluting the 20 mg/ml solution 10-fold with physiological saline. A 5 mg/ml solution was prepared by dissolving each peptide in a predetermined amount in physiological saline to make a prepared solution.
A mixed solution of OVA and Evans blue dye was administered into the tail vein at a dose of 2 ml/kg. Each peptide solution was administered intraperitoneally or into the tail vein 30 minutes or 50 minutes after the administration of the mixed solution of OVA and Evans blue dye, respectively. For intracutaneous administration of an anti-OVA solution, […] was intracutaneously administered in the back of animals at a dose of 0.1 mL/site 30 minutes or 10 minutes after the administration of the tested substance in the case of intraperitoneal or intravenous administration, respectively, so as to generate a local Arthus reaction. Intracutaneous administration was conducted at 2 sites for PBS and at 2 sites for the anti-OVA solution per animal. After the reaction was allowed to be generated for 4 hours, the animals were euthanized by decapitation under ether anesthesia, the blood was removed thoroughly, and then the dorsal skin was exfoliated. The Arthus reaction sites on the exfoliated skin were punched out and subjected to dye extraction.
Several cuttings were made in the skin strips that were punched out with a punch. […] The amount of dye leakage was calculated from a calibration curve of known amounts of the dye.
The mean value (mean)±standard deviation (SD) for each group was calculated with body-weight measurements and amounts of dye leakage. […]

STGKFTCKVPGLYYF (Immunoglobulin binding peptide) [R5]
arthritis suppressing effect (clinical score) [1]: Arthritis suppressing effects were observed; also recorded: arthritis was suppressed
effect of immune-complex disease suppression (dye leakage) [2]: clear and satisfactory effects of immune-complex disease suppression; also recorded: suppressed

Source: patent publication US20110306554A1, “PEPTIDE CAPABLE OF BINDING TO IMMUNOGLOBULIN” (priority 2009, published 2011)
